Data from ChEMBL document CHEMBL1764978, “Cysteine mapping in conformationally distinct kinase nucleotide binding sites: application to the design of selective covalent inhibitors” (J Med Chem, 2011).

What was measured:
[1] = target: Vascular endothelial growth factor receptor 3 (Homo sapiens) (UniProt P35916); test: Binding affinity to human Flt4 assessed as residual binding at 10 uM by site dependent competitive binding assay
[2] = target: Serine/threonine-protein kinase MARK2 (Homo sapiens) (UniProt Q7KZI7); test: Binding affinity to human Mark2 isoleucine residue assessed as residual binding at 10 uM by site dependent competitive binding assay
[3] = target: Fibroblast growth factor receptor 4 (Homo sapiens) (UniProt P22455); test: Binding affinity to human Fgfr4 assessed as residual binding at 10 uM by site dependent competitive binding assay
[4] = target: Serine/threonine-protein kinase 17A (Homo sapiens) (UniProt Q9UEE5); test: Binding affinity to human DRAK1 valine residue assessed as residual binding at 10 uM by site dependent competitive binding assay
Serine/threonine-protein kinase 17A (Homo sapiens), sequence (Q9UEE5 whole entry): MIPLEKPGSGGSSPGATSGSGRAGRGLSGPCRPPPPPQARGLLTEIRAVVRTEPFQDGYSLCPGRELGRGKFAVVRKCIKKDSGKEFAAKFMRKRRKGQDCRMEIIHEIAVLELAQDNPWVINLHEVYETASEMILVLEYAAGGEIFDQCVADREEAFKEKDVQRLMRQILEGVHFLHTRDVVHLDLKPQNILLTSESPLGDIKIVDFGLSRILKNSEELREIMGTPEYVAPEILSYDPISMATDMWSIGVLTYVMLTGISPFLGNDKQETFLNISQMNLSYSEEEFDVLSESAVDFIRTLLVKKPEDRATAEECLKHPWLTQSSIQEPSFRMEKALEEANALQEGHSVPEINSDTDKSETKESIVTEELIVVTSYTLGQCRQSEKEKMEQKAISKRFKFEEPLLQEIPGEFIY

[5] = target: Tyrosine-protein kinase Blk (Homo sapiens) (UniProt P51451); test: Binding affinity to human BLK serine residue assessed as residual binding at 10 uM by site dependent competitive binding assay
[6] = target: Tyrosine-protein kinase Fer (Homo sapiens) (UniProt P16591); test: Binding affinity to human Fer assessed as residual binding at 10 uM by site dependent competitive binding assay
[7] = target: Ephrin type-A receptor 8 (Homo sapiens) (UniProt P29322); test: Binding affinity to human EPHA8 tyrosine residue assessed as residual binding at 10 uM by site dependent competitive binding assay
[8] = target: Vascular endothelial growth factor receptor 1 (Homo sapiens) (UniProt P17948); test: Binding affinity to human Flt1 assessed as residual binding at 10 uM by site dependent competitive binding assay
[9] = target: Fibroblast growth factor receptor 3 (Homo sapiens) (UniProt P22607); test: Binding affinity to human Fgfr3 assessed as residual binding at 10 uM by site dependent competitive binding assay
[10] = target: Cyclin-G-associated kinase (Homo sapiens) (UniProt O14976); test: Binding affinity to human GAK isoleucine residue assessed as residual binding at 10 uM by site dependent competitive binding assay
Cyclin-G-associated kinase (Homo sapiens), sequence (O14976 whole entry): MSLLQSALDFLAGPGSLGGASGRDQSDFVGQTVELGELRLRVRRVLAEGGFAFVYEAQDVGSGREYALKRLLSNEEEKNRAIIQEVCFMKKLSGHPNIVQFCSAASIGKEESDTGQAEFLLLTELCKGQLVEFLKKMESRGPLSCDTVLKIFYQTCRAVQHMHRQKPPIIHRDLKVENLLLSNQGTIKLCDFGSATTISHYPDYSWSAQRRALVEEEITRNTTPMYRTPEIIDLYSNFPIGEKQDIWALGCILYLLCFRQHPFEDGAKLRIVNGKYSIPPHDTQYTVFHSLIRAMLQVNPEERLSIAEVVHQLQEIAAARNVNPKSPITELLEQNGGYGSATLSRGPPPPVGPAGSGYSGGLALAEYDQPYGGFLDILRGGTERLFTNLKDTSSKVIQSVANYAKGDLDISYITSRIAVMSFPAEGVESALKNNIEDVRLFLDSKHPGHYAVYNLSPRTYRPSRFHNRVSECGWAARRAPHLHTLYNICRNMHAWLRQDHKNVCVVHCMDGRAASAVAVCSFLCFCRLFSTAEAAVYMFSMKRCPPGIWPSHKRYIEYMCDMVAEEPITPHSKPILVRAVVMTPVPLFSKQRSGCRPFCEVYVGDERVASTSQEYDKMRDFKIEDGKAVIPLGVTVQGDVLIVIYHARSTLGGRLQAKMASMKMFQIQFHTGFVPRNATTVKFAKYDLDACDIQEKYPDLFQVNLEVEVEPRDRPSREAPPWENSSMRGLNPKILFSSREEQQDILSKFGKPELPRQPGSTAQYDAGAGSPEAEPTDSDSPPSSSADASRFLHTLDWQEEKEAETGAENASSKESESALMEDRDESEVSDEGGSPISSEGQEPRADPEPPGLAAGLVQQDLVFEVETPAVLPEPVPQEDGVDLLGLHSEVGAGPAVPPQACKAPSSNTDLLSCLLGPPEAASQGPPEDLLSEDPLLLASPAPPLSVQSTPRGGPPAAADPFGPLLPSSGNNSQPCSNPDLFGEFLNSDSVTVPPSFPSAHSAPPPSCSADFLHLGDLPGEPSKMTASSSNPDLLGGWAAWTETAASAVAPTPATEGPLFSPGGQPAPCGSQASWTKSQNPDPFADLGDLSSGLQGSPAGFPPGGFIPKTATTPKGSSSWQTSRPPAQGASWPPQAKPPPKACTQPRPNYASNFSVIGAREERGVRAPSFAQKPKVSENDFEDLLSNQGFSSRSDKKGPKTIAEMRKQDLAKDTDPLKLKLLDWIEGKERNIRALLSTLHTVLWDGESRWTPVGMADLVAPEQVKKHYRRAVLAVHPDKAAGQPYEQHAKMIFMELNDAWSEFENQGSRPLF

[11] = target: Tyrosine-protein kinase ABL1 (Homo sapiens, UniProt P00519); test: Inhibition of human wild type ABL1 assessed as [gamma33P]ATP incorporation into poly-Ala-Glu-Lys-Tyr after 60 mins by microplate scintillation counting
Tyrosine-protein kinase ABL1, sequence (P00519 whole entry): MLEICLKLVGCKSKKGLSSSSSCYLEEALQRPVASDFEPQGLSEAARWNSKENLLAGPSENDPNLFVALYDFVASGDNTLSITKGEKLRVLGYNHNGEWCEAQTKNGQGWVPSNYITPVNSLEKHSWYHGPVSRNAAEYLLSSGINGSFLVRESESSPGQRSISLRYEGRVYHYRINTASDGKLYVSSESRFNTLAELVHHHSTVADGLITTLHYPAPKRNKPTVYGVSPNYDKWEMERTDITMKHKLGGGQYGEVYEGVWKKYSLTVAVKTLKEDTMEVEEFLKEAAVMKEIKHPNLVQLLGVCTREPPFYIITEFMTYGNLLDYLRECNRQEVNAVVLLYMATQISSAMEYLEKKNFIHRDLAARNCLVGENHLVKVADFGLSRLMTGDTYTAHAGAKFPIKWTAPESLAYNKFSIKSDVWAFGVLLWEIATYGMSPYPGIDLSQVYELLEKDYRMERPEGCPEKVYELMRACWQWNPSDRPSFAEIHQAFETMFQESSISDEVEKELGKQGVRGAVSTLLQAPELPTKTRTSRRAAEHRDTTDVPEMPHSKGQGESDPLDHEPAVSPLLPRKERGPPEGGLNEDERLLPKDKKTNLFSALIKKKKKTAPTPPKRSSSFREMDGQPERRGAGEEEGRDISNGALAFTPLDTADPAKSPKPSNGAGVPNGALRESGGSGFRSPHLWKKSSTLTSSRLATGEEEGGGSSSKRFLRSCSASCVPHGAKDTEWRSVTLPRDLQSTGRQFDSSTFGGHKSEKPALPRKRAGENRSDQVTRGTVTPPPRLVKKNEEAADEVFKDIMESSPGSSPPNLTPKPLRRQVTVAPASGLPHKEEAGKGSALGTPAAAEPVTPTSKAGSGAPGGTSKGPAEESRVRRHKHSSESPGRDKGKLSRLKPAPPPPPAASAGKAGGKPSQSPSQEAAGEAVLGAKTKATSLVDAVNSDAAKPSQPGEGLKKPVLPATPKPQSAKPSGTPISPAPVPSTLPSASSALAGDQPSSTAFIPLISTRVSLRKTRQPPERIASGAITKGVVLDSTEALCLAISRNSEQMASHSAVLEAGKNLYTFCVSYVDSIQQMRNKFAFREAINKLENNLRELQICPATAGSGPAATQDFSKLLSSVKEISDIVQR

[12] = target: T1, Mast/stem cell growth factor receptor Kit (Homo sapiens, UniProt P10721); test: Inhibition of human wild type KIT assessed as [gamma33P]ATP incorporation into polyGluTyr after 60 mins by microplate scintillation counting
T1 sequence (P10721 whole entry): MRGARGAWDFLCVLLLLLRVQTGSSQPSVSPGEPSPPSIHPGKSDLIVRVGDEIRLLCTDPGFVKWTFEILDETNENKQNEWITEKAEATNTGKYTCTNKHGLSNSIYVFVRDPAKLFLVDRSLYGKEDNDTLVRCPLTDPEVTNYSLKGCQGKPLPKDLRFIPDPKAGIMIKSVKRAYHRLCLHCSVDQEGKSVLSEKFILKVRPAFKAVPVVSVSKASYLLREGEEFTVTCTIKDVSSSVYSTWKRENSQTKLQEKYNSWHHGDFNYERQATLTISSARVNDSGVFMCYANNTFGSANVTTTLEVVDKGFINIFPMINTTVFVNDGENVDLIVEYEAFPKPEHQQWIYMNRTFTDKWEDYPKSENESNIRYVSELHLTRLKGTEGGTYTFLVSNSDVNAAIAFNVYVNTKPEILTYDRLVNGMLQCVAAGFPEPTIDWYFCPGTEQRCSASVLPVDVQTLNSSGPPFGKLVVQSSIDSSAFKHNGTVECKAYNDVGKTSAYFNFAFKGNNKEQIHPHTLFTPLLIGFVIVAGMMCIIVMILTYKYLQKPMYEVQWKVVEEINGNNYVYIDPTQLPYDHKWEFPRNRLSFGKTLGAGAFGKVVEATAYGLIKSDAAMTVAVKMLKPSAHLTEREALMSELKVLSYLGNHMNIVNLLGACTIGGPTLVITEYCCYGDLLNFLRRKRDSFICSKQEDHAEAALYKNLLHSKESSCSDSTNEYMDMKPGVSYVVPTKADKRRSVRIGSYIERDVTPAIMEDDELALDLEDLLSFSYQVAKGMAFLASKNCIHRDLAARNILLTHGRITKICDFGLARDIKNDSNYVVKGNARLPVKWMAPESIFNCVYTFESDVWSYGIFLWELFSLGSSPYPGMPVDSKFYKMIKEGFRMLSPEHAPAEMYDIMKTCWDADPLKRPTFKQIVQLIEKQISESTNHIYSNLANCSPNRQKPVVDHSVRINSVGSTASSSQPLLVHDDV

[13] = target: Fibroblast growth factor receptor 2 (Homo sapiens) (UniProt P21802); test: Binding affinity to human Fgfr2 assessed as residual binding at 1 uM by site dependent competitive binding assay
[14] = target: Tyrosine-protein kinase Fer (Homo sapiens) (UniProt P16591); test: Binding affinity to human Fer assessed as residual binding at 1 uM by site dependent competitive binding assay
[15] = target: Fibroblast growth factor receptor 4 (Homo sapiens) (UniProt P22455); test: Binding affinity to human Fgfr4 assessed as residual binding at 1 uM by site dependent competitive binding assay
[16] = target: Tyrosine-protein kinase JAK3 (Homo sapiens) (UniProt P52333); test: Binding affinity to human Jak3 domain 1 assessed as residual binding at 1 uM by site dependent competitive binding assay
[17] = target: Platelet-derived growth factor receptor beta (Homo sapiens) (UniProt P09619); test: Binding affinity to human PDGFRbeta assessed as residual binding at 1 uM by site dependent competitive binding assay
[18] = target: Vascular endothelial growth factor receptor 2 (Homo sapiens) (UniProt P35968); test: Binding affinity to human Vegfr2 assessed as residual binding at 1 uM by site dependent competitive binding assay
[19] = target: Tyrosine-protein kinase Blk (Homo sapiens) (UniProt P51451); test: Binding affinity to human BLK serine residue assessed as residual binding at 1 uM by site dependent competitive binding assay
[20] = target: Cyclin-G-associated kinase (Homo sapiens) (UniProt O14976); test: Binding affinity to human GAK isoleucine residue assessed as residual binding at 1 uM by site dependent competitive binding assay
[21] = target: T1, Mast/stem cell growth factor receptor Kit; test: Binding affinity to human Kit assessed as residual binding at 1 uM by site dependent competitive binding assay
[22] = target: Mitogen-activated protein kinase 9 (Homo sapiens) (UniProt P45984); test: Binding affinity to human Jnk2 isoleucine residue assessed as residual binding at 1 uM by site dependent competitive binding assay
[23] = target: Vascular endothelial growth factor receptor 3 (Homo sapiens) (UniProt P35916); test: Binding affinity to human Flt4 assessed as residual binding at 1 uM by site dependent competitive binding assay
[24] = target: T2, Platelet-derived growth factor receptor alpha (Homo sapiens, UniProt P16234); test: Inhibition of human wild type PDGFRalpha assessed as [gamma33P]ATP incorporation into poly-Ala-Glu-Lys-Tyr after 60 mins by microplate scintillation counting
T2 sequence (P16234 whole entry): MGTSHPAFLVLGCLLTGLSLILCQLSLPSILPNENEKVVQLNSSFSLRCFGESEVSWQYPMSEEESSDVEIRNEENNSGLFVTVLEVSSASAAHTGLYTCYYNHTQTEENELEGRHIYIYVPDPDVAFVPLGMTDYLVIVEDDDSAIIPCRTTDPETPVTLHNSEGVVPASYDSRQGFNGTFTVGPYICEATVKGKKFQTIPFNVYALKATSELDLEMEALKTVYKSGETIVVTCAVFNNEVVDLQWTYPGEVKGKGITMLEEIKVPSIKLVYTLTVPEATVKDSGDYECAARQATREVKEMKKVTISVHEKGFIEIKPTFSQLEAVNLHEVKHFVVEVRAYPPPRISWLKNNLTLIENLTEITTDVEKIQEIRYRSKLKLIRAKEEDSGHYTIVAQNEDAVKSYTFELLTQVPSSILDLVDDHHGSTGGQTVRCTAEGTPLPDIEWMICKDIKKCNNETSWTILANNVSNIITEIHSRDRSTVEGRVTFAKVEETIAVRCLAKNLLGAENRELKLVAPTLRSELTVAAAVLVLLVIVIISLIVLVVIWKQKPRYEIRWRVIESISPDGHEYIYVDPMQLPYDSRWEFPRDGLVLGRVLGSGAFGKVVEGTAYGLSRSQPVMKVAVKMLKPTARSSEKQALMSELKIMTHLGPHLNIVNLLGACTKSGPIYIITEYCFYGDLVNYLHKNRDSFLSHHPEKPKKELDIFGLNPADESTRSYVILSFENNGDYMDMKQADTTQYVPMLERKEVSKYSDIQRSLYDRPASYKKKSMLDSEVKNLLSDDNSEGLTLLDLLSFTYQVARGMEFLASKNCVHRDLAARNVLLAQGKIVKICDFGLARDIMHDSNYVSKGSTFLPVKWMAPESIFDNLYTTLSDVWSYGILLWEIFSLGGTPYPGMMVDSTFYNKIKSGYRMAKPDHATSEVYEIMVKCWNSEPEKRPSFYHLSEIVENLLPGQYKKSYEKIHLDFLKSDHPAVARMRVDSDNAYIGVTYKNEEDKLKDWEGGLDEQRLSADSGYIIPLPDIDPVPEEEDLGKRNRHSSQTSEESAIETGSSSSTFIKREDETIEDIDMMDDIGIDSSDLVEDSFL

[25] = target: Protein-tyrosine kinase 2-beta (Homo sapiens) (UniProt Q14289); test: Binding affinity to human Pyk2 assessed as residual binding at 1 uM by site dependent competitive binding assay
[26] = target: Tyrosine-protein kinase ABL2 (Homo sapiens) (UniProt P42684); test: Binding affinity to human ABL2 phenylalanine residue assessed as residual binding at 1 uM by site dependent competitive binding assay
[27] = target: Mitogen-activated protein kinase 10 (Homo sapiens) (UniProt P53779); test: Binding affinity to human Jnk3 isoleucine residue assessed as residual binding at 1 uM by site dependent competitive binding assay
[28] = target: T1, Mast/stem cell growth factor receptor Kit; test: Binding affinity to human Kit cysteine residue assessed as residual binding at 1 uM by site dependent competitive binding assay
[29] = target: Discoidin domain-containing receptor 2 (Homo sapiens) (UniProt Q16832); test: Binding affinity to human DDR2 phenylalanine residue assessed as residual binding at 1 uM by site dependent competitive binding assay
[30] = target: Vascular endothelial growth factor receptor 1 (Homo sapiens) (UniProt P17948); test: Binding affinity to human Flt1 assessed as residual binding at 1 uM by site dependent competitive binding assay
[31] = target: T2, Platelet-derived growth factor receptor alpha; test: Binding affinity to human PDGFRalpha assessed as residual binding at 1 uM by site dependent competitive binding assay
[32] = target: Ephrin type-A receptor 8 (Homo sapiens) (UniProt P29322); test: Binding affinity to human EPHA8 tyrosine residue assessed as residual binding at 1 uM by site dependent competitive binding assay
[33] = target: Platelet-derived growth factor receptor beta (Homo sapiens) (UniProt P09619); test: Binding affinity to human PDGFRbeta cysteine residue assessed as residual binding at 1 uM by site dependent competitive binding assay
[34] = target: Fibroblast growth factor receptor 1 (Homo sapiens) (UniProt P11362); test: Binding affinity to human Fgfr1 assessed as residual binding at 1 uM by site dependent competitive binding assay
[35] = target: Epithelial discoidin domain-containing receptor 1 (Homo sapiens) (UniProt Q08345); test: Binding affinity to human DDR1 phenylalanine residue assessed as residual binding at 1 uM by site dependent competitive binding assay
[36] = tested on: Mast/stem cell growth factor receptor Kit (Homo sapiens), P10721 [V559D]; test: Binding affinity to human Kit V559D mutant cysteine residue assessed as residual binding at 1 uM by site dependent competitive binding assay
Mast/stem cell growth factor receptor Kit (Homo sapiens), P10721 [V559D], sequence (P10721 whole entry V559D): as the sequence (P10721 whole entry) above, with V559D counted along it

[37] = target: Macrophage colony-stimulating factor 1 receptor (Homo sapiens) (UniProt P07333); test: Binding affinity to human CSF1R cysteine residue assessed as residual binding at 1 uM by site dependent competitive binding assay
[38] = tested on: Mast/stem cell growth factor receptor Kit (Homo sapiens), P10721 [V559D,V654A]; test: Binding affinity to human Kit V559D/V654A mutant cysteine residue assessed as residual binding at 1 uM by site dependent competitive binding assay
Mast/stem cell growth factor receptor Kit (Homo sapiens), P10721 [V559D,V654A], sequence (P10721 whole entry V559D/V654A): as the sequence (P10721 whole entry) above, with V559D, V654A counted along it

[39] = target: Tyrosine-protein kinase Lck (Homo sapiens) (UniProt P06239); test: Binding affinity to human LCK tyrosine residue assessed as residual binding at 1 uM by site dependent competitive binding assay
[40] = target: Calcium/calmodulin-dependent protein kinase kinase 2 (Homo sapiens) (UniProt Q96RR4); test: Binding affinity to human CAMKK2 isoleucine residue assessed as residual binding at 1 uM by site dependent competitive binding assay
[41] = target: Calcium/calmodulin-dependent protein kinase kinase 1 (Homo sapiens) (UniProt Q8N5S9); test: Binding affinity to human CAMKK1 isoleucine residue assessed as residual binding at 1 uM by site dependent competitive binding assay
[42] = target: Tyrosine-protein kinase Lyn (Homo sapiens) (UniProt P07948); test: Binding affinity to human LYN tyrosine residue assessed as residual binding at 1 uM by site dependent competitive binding assay
[43] = target: Cyclin-dependent kinase-like 1 (Homo sapiens) (UniProt Q00532); test: Binding affinity to human CDKL1 assessed as residual binding at 1 uM by site dependent competitive binding assay
[44] = target: Macrophage colony-stimulating factor 1 receptor (Homo sapiens) (UniProt P07333); test: Binding affinity to human CSF1R assessed as residual binding at 1 uM by site dependent competitive binding assay
[45] = tested on: Serine/threonine-protein kinase B-raf (Homo sapiens), P15056 [V600E]; test: Binding affinity to human BRAF V600E mutant isoleucine residue assessed as residual binding at 1 uM by site dependent competitive binding assay
[46] = target: Mitogen-activated protein kinase 8 (Homo sapiens) (UniProt P45983); test: Binding affinity to human Jnk1 isoleucine residue assessed as residual binding at 1 uM by site dependent competitive binding assay
[47] = target: T2, Platelet-derived growth factor receptor alpha; test: Binding affinity to human PDGFRalpha cysteine residue assessed as residual binding at 1 uM by site dependent competitive binding assay
[48] = target: Receptor-type tyrosine-protein kinase FLT3 (Homo sapiens) (UniProt P36888); test: Binding affinity to human Flt3 assessed as residual binding at 1 uM by site dependent competitive binding assay
[49] = target: Serine/threonine-protein kinase 3 (Homo sapiens) (UniProt Q13188); test: Binding affinity to human Mst2 […] residue assessed as residual binding at 1 uM by site dependent competitive binding assay
[50] = target: Serine/threonine-protein kinase 17A (Homo sapiens) (UniProt Q9UEE5); test: Binding affinity to human DRAK1 valine residue assessed as residual binding at 1 uM by site dependent competitive binding assay
[51] = target: Serine/threonine-protein kinase MARK2 (Homo sapiens) (UniProt Q7KZI7); test: Binding affinity to human Mark2 isoleucine residue assessed as residual binding at 1 uM by site dependent competitive binding assay
[52] = target: Tyrosine-protein kinase Fes/Fps (Homo sapiens) (UniProt P07332); test: Binding affinity to human Fes assessed as residual binding at 1 uM by site dependent competitive binding assay
[53] = target: Fibroblast growth factor receptor 3 (Homo sapiens) (UniProt P22607); test: Binding affinity to human Fgfr3 assessed as residual binding at 1 uM by site dependent competitive binding assay

An Activity [1] of 85%, an Activity [2] of 8.8% and an Activity [3] of 99% were found for `Cc1ccc(NC(=O)c2ccc(CN3CCN(C)CC3)cc2)cc1Nc1nccc(-c2cccnc2)n1` in this work. For the same compound, the Activity [4] was 5.2%, the Activity [5] was 0.8% and the Activity [6] was 91%. The Activity [7] was 7.2%, the Activity [8] was 78% and the Activity [9] was 97%. It also gave an Activity [10] of 5.1%.

An IC50 [11] greater than 20 µM and an IC50 [12] of 2.74 µM were found for `C=C(C)C(=O)NCc1ccc(C(=O)Nc2ccc(C)c(Nc3nccc(-c4cccnc4)n3)c2)cc1` in this work.

An IC50 [11] greater than 20 µM and an IC50 [12] of 0.788 µM were found for `Cc1ccc(NC(=O)c2ccc(CN)cc2)cc1Nc1nccc(-c2cccnc2)n1` in this work.

An IC50 [11] greater than 20 µM and an IC50 [12] of 4.71 µM were found for `C/C=C/C(=O)NCc1ccc(C(=O)Nc2ccc(C)c(Nc3nccc(-c4cccnc4)n3)c2)cc1` in this work.

An IC50 [12] of 0.245 µM was found for `Cc1ccc(NC(=O)c2ccc(CCl)cc2)cc1Nc1nccc(-c2cccnc2)n1` in this work.

An Activity [13] of 92%, an Activity [14] of 95% and an Activity [15] of 100% were found for `Cc1ccc(NC(=O)c2ccc(CNC(=O)CCl)cc2)cc1Nc1nccc(-c2cccnc2)n1` in this work. For the same compound, the Activity [16] was 100%, the Activity [17] was 0% and the Activity [18] was 64%. It also gave an Activity [19] of 69%, an Activity [20] of 18% and an Activity [21] of 0%. For the same compound, the Activity [22] was 4.6%, the Activity [23] was 100% and the IC50 [24] was 1.08 µM. The Activity [25] was 68%, the Activity [26] was 49% and the Activity [27] was 1.9%. The Activity [28] was 0%, the Activity [29] was 31% and the Activity [30] was 86%. For the same compound, the Activity [31] was 0.7%, the Activity [32] was 100% and the Activity [33] was 0%. The IC50 [11] was greater than 20 µM, the Activity [34] was 100% and the Activity [35] was 0.5%. It also gave an Activity [36] of 0%, an Activity [37] of 5% and an Activity [38] of 7%. For the same compound, the Activity [39] was 64%, the Activity [40] was 100% and the Activity [41] was 100%. The Activity [42] was 76%, the Activity [43] was 100% and the Activity [44] was 5%. For the same compound, the Activity [45] was 4.6%, the Activity [46] was 0.45% and the Activity [47] was 0.7%. For the same compound, the Activity [48] was 81%, the Activity [49] was 100% and the Activity [50] was 100%. For the same compound, the Activity [51] was 100%, the Activity [52] was 100% and the Activity [53] was 100%. The IC50 [12] was 0.788 µM.
